Columns and labels:
[1] = test system: immunoaffinity purified RA auto-antibodies; test: Immuno-blotting of cellulose-bound spot peptides with immunoaffinity purified RA auto-antibodies (Example 5); assay type: binding, human; conditions: IgM RF eluate 1 μg/mL
Protocol: 1. IgG is coupled to CNBr activated Sepharose using the manufacturers instructions (Pharmacia, Upsala, Sweden).
2. The IgG Sepharose is packed in a suitable column (i.e. a disposable DG10 column, BioRad laboratories, Richmond, Calif.). The column is washed with at least 10 column volumes PBS and with 10 column volumes 0.1 M sodium acetate, 0.15 M sodium chloride pH 3.5 and finally equilibrated in PBS.
3. Serum from RA patients is diluted 10 times in PBS and loaded on the column. The column is washed with PBS until the absorbency (OD 280 nm) reaches base-line.
4. Bound RF's are eluted with 0.1 M sodium acetate, 0.15 M sodium chloride pH 3.5.
5. IgM is separated from IgG and IgA by gel-filtration on a Sephadex G-200 column in 0.1 M sodium acetate, 0.15 M sodium chloride pH 3.5.
6. Eluted IgM is diluted in PBS-BT to 1 μg/mL and assayed as described below.
Seven amino-acid peptides extending over the Asn-315 residue were synthesised by spot synthesis using Whatman 540 paper (Maidstone, U.K.), using the previously described procedures (Frank, 1992, Kramer et al 1994). The peptides were automatically prepared using a spot synthesis method (Abimed, Langenfeld, FRG). The following peptides were synthesised, covalently attached via the carboxy-terminus:
The cellulose membrane containing these peptides was incubated with the immunoaffinity purified RA auto-antibodies purified as described above. […]

human immunoglobulin = test: Homogeneous RIA with 125I-BSA-BS3-Pro-Ser-Glu-γ-Gly-Lys-Gly-Arg-Gly in MS and control sera (Example 9); assay type: binding
Description: For this purpose the MBP derived octapeptide Pro-Ser-Glu-γ-Gly-Lys-Gly-Arg-Gly (γL) was manufactured synthetically using standard FMOC chemistry. The peptide was conjugated to bovine serum albumin (BSA) by Bis[sulfosuccinimidyl]suberate (BS^3) according to the manufacturers instructions (Pierce) and iodinated with ^125I using the chloramine T protocol as described in Example 4.
Serum from 9 MS-patients and 8 healthy persons are reacted overnight with ^125I-BSA-BS^3-Pro-Ser-Glu-γ-Gly-Lys-Gly-Arg-Gly followed by precipitation of immune complexes with protein A Sepharose. Serum samples are diluted 1:200 in IMP buffer. The ^125I BSA-BS^3-Pro-Ser-Glu-γ-Gly-Lys-Gly-Arg-Gly tracer is diluted in IMP buffer (to an activity of 100000 CPM/25 μl). Seventy-five μl of diluted serum sample is mixed with 25 μl tracer and 25 μl of either IMP buffer or free (unconjugated/unlabelled) Pro-Ser-Glu-γ-Gly-Lys-Gly-Arg-Gly peptide (in a concentration of […] in IMP buffer) is added to this mixture. This mixture is incubated overnight at 4° C. Protein. A Sepharose (PAS) 20 μl/sample vial is weighed out and washed 3 times with 10 ml IMP washing buffer, and transferred to eppendorf 1.5 ml tubes using a repeater pipette. The PAS is sedimented by centrifugation at 2000 RPM 2 min., and the supernatant is aspirated using a suction device (or a pipette). […]

| Substance | reactivity of purified RA auto-antibodies towards cellulose-bound peptide [1] | inhibition of binding of tracer conjugate to human immunoglobulin by free peptide (human immunoglobulin; 25 μl free peptide, 10 μl/mL in IMP buffer) | % inhibition of immunoglobulin binding by free peptide, MS sera compared to control sera (human immunoglobulin; p=0.008, two-tailed non-parametric t-test) |
| --- | --- | --- | --- |
| His-Gln-Asp-Trp-Leu-Asp-β-Gly... [peptide IV] | strong reactivity |  |  |
| Pro-Ser-Glu-γ-Gly-Lys-Gly-Arg-Gly |  | could be specifically inhibited | significantly higher |

From patent publication US20030216319A1, “Specific autoimmune reactions against isomerised/optically inverted epitopes: application for treatment of autoimmune diseases” (priority 2000, published 2003)
